How the values were obtained:
[1] = tested on: V79 cells; assay: cellular uptake by flow cytometry (fluorescence intensity per cell, MFI); format: cell-based, Chinese hamster; settings: linear least squares fit; for slope of net MFI versus extracellular drug concentration, low concentrations: Cdauno<0.6 μmol/L, Cdoxo<1 μmol/L; for slope of net MFI versus extracellular drug concentration, high concentrations: Cdauno>0.6 μmol/L (+1161), Cdoxo>1 μmol/L (+29)
Procedure: Briefly, flow cytometry was used to quantify their mean fluorescence intensity (MFI) per cell, <I>, as a function of the concentration of the agent in the cell culture medium. The net mean fluorescence intensities per cell, <I>net, were determined by subtracting control autofluorescence <I>control, according to the following equation: […]
^210Po-Citrate. The uptake of ^210Po-citrate was determined on a cell-by-cell basis by flow cytometric techniques, using ^210Po-free citrate. Briefly, V79 cells (2×10^6 cells/mL) were treated with 0-3 mmol/L of citrate and incubated on a rocker-roller as described earlier. Cellular uptake of citrate was tracked using an europium tetracycline (EuTc) conjugate. Samples were washed 2× with 10 mmol/L MOPS buffer (Sigma, St. Louis, catalog no. M3183), after a 30 min exposure to citrate. The cells were resuspended in 1 mL of MOPS buffer containing EuTc (Sigma, catalog nos. 203254 for Eu and T7660 for Tc), transferred into 7 ml polystyrene flow cytometry tubes (BD, catalog no. 352054), and were incubated at room temperature (˜22° C.) in the dark for 30 min. The final concentration of EuTc was 100 μmol/L. EuTc forms a ternary complex with citrate (EuTc-citrate) which is excitable at 488 nm, and its emission can be captured within the wavelengths transmitted by the 610/20 filter. After washing 2× with MOPS buffer, the samples were resuspended in 1 mL of MOPS buffer, passed 5× through a 21-gauge needle, and were analyzed by flow cytometry using an LSR II flow cytometer (BD), equipped with a 488 nm laser. Cellular incorporation of citrate, expressed in terms of the fluorescence intensity per cell or mean fluorescence intensity (MFI) of EuTc-citrate, was used as a surrogate measure cellular uptake of ^210Po-citrate.
To determine the cellular uptake of daunomycin and doxorubicin, the cells were treated with 0-10 μmol/L of each drug in MEMB and incubated on a rocker-roller for 2.5 h. The cells were washed 2× with phosphate buffered saline (PBS), resuspended in 1 mL of PBS, passed 5× through a needle, and were immediately subjected to flow cytometric analysis. The 488 nm laser was used to excite intracellular daunomycin and doxorubicin, and the emission spectra were captured within the wavelengths transmitted by the 575/26 and 530/30 filters, respectively. Cellular incorporation of drugs was also expressed as MFI.

[2] = tested on: Chinese hamster V79 lung fibroblasts; assay: clonogenic survival assay (colony formation) after single-agent treatment; format: cell-based; settings: for surviving fraction for drug alone: 0.63 μM daunomycin or 2.50 μM doxorubicin, 2.5 h; for mean lethal concentration: extracellular concentration for 37% survival, 2.5 h exposure
Procedure: The surviving fraction SF of cells exposed to the agent was assessed with a clonogenic survival assay and plotted as a function of several different variables including extracellular concentration, <I>net, absorbed dose (Gy), and mean cellular activity (mBq/cell). The resulting survival curves were of a 1- or 2-component exponential form. Analogous to the cellular activity and absorbed dose required to achieve 37% survival, a37 and D37, the net mean lethal fluorescence intensity of the drug required to achieve 37% survival, <I>net37 , can be defined similarly and obtained from plots of SF versus <I>net.
To evaluate ^210Po cytotoxicity, the surviving fraction was plotted as a function of EuTc-citrate net MFI, mean cellular uptake of ^210Po, and mean absorbed dose to the nucleus (FIG. 4A). […] The relationships between cell survival and EuTc-citrate net MFI or cellular ^210Po activity can be described by an exponential function SF=exp(−A/A1). The relationship between cell survival and drug net MFI (or extracellular concentration) for daunomycin and doxorubicin are illustrated in FIGS. 4B and 4C, respectively. For both drugs, clonogenic survival and cellular drug uptake (as determined by net MFI) are related via two component exponential functions SF=b exp(−A/A1)+(1-b) exp(−A/A2). A is the intracellular activity of ^210Po-citrate, absorbed dose to the cell nucleus, or drug concentration. Least squares fits of the survival data to this function were performed. The variable b is a fitted parameter.
Chinese hamster V79 lung fibroblasts were used. Two different formulations of minimum essential media (MEMA and MEMB) were used, as known in the literature. All media and supplements were Gibco (Carlsbad, CA), including fetal calf serum (catalog no. 10437, lot no. 539574). For routine maintenance, cells were grown as monolayers in Falcon 25-cm^2 tissue culture flasks (BD, Franklin Lakes, NJ, catalog no. 353082) at 37° C., 5% CO2-95% air, and subcultured twice weekly. For experiments, V79 cells (passage 4-11) were transferred into Falcon 225-cm^2 flasks (BD, catalog no. 353138), and were used upon reaching 80%-90% confluence.
Cells grown in 225-cm^2 flasks were trypsinized (0.25% trypsin, Gibco, catalog no. 25200-056), and MEMB was added to obtain 2×10^6 cells/mL. Aliquots of 1 mL were placed in Falcon 17×100 mm polypropylene tubes (BD, catalog no. 352018) and placed on a rocker-roller (Thermo Fisher, Fair Lawn, NJ) for 3 hours at 37° C. with 5% CO2 and 95% air. After this conditioning period, cells were treated with drug or radiochemical. Cell cultures were exposed to radiochemical and drugs for 0.5 and 2.5 h, respectively.
^210PoCl4 in 2 mol/L HCI was obtained at 370 MBq/mL from Eckert&Ziegler Isotope Products (Valencia, CA, catalog no. 6310). ^210Po-citrate was prepared as follows. Briefly, PoCl4 solution was mixed with 1 mol/L sodium citrate in the ratio of 1:7 (final pH 5.8), and was diluted with MEMB to a volume of 4 mL (final pH 6.9). One milliliter of MEMB containing 210Po-citrate was added to the 1 mL of conditioned V79 cultures (2×10^6 cells/mL), to arrive at a concentration of 0-250 kBq/mL (pH 6.9-7.0). After incubating for 30 min, the cells were washed 2× with MEMB, resuspended in 2 mL of MEMB, and incubated on a rocker-roller for 2.5 h to simulate concomitant drug exposure. The cells were resuspended in a 5 mL of MEMB, passed 5× through a needle, and counted with a Beckman Coulter Model Z2 (Brea, CA). Aliquots (500 μL) of the cell suspension were transferred to vials, mixed with 5 mL Ecolume (MP Biomedical, Solon, OH, catalog no. 882470), and counted with a Beckman Coulter LS6500, and the mean activity per cell was determined (efficiency, 50% as per prior studies). Aliquots of about 5×10^5 cells were counted in triplicate for ^210Po activity and the cpm ranged from 10^3-10^5. The triplicate measurements kept statistical variations to a minimum. […]

Compound	slope of net MFI versus extracellular drug concentration, low concentrations [1]	slope of net MFI versus extracellular drug concentration, high concentrations [1]	surviving fraction for drug alone [2]	mean lethal concentration ([2]; V79 cells) [µmol/L]	lethality relative to doxorubicin ([2]; low extracellular concentrations, V79 cells) [×]
COc1cccc2c1C(=O)c1c(O)c3c(c(O)c1C2=O)C[C@@](O)(C(=O)CO)C[C@@H]3O[C@H]1C[C@H](N)[C@H](O)[C@H](C)O1 [doxorubicin]	61 (μmol/L)^−1	40 (μmol/L)^−1	0.10	1.26	–
COc1cccc2c1C(=O)c1c(O)c3c(c(O)c1C2=O)C[C@@](O)(C(C)=O)C[C@@H]3O[C@H]1C[C@H](N)[C@H](O)[C@H](C)O1 [daunomycin]	5922 (μmol/L)^−1	2480 (μmol/L)^−1	0.10	0.24	~5

— patent US20240115881A1, “METHODS AND SYSTEMS FOR DETERMINING THE DISTRIBUTION OF RADIATION DOSE AND RESPONSE” (priority 2022, published 2024)
